Several values for one entry are separate records, joined by “and”; a condition that tells them apart may be missing. Identical values can stand only once.
Assay: Dose-response of LHGFR expressed in digitonin-permeabilized HEK293FT cells for L-2-HG
Assay type: cell-based, human (HEK293FT cells)
Experimental: To characterize the sensitivity and specificity of LHGFR expressed in HEK293FT cells, cells were trypsinized 48 h following transfection and suspended in 1× Hank’s balanced salt solution supplemented with 20 mM HEPES. […] Digitonin at a concentration of 10 μM was used to induce cell permeabilization and deplete intracellular L-2-HG for in vivo response curves construction. Then, the fluorescence intensities were determined by a SpectraMax i3 fluorescence plate reader (Molecular Devices, USA) with excitation at 430 nm and emission at 485 nm (mTFP) and 528 nm (Venus). Basal L-2-HG concentration in HEK293FT cells under physiological conditions was determined by substituting the emission ratios of non-permeabilized HEK293FT cells into the calibrated in vivo response curves.

For `O=C(O)CC[C@H](O)C(=O)O` [L-2-HG, L-2-Hydroxyglutarate], the Normalized emission ratio (Fig. 6c, L-2-HG concentration 0.01) was 0.9714 and 1.018 and 1.011, the Normalized emission ratio (Fig. 6c, L-2-HG concentration 0.1) was 1.002 (2×) and 0.9784 and the Normalized emission ratio (Fig. 6c, L-2-HG concentration 1) was 1.006 and 0.9618 and 1.048. The Normalized emission ratio (Fig. 6c, L-2-HG concentration 10) was 1.045 and 1.118 and 1.137, the Normalized emission ratio (Fig. 6c, L-2-HG concentration 20) was 1.133 and 1.12 and 1.163 and the Normalized emission ratio (Fig. 6c, L-2-HG concentration 100) was 1.245 and 1.312 and 1.322. For the same compound, the Normalized emission ratio (Fig. 6c, L-2-HG concentration 200) was 1.303 and 1.3035 and 1.367, the Normalized emission ratio (Fig. 6c, L-2-HG concentration 1000) was 1.414 and 1.364 and 1.401 and the Normalized emission ratio (Fig. 6c, L-2-HG concentration 2000) was 1.387 and 1.439 and 1.425. For the same compound, the Normalized emission ratio (Fig. 6c, L-2-HG concentration 10000) was 1.443 and 1.404 and 1.415, the Normalized emission ratio (L-2-HG concentration 0.01, Supplementary Fig. 17c) was 0.9984 and 1.014 and 0.9873 and the Normalized emission ratio (L-2-HG concentration 0.01, Supplementary Fig. 18c) was 0.9865 and 0.9714 and 1.042. The Normalized emission ratio (L-2-HG concentration 0.1, Supplementary Fig. 17c) was 1 and 1.004 and 1.02, the Normalized emission ratio (L-2-HG concentration 0.1, Supplementary Fig. 18c) was 0.9909 and 1.037 and 0.9822 and the Normalized emission ratio (L-2-HG concentration 1, Supplementary Fig. 17c) was 1.007 and 1.056 and 1.0486. For the same compound, the Normalized emission ratio (L-2-HG concentration 1, Supplementary Fig. 18c) was 0.9662 and 0.9722 and 0.9935, the Normalized emission ratio (L-2-HG concentration 10, Supplementary Fig. 17c) was 1.22 and 1.297 and 1.235 and the Normalized emission ratio (L-2-HG concentration 10, Supplementary Fig. 18c) was 0.9752 and 1.056 and 0.9703. The Normalized emission ratio (L-2-HG concentration 20, Supplementary Fig. 17c) was 1.319 and 1.273 and 1.318, the Normalized emission ratio (L-2-HG concentration 20, Supplementary Fig. 18c) was 1.003 and 1.067 and 0.9797 and the Normalized emission ratio (L-2-HG concentration 100, Supplementary Fig. 17c) was 1.392 and 1.387 and 1.431. The Normalized emission ratio (L-2-HG concentration 100, Supplementary Fig. 18c) was 1.048 and 0.9825 and 0.9723, the Normalized emission ratio (L-2-HG concentration 200, Supplementary Fig. 17c) was 1.3826 and 1.447 and 1.484 and the Normalized emission ratio (L-2-HG concentration 200, Supplementary Fig. 18c) was 0.9116 and 1.038 and 1.008. The Normalized emission ratio (L-2-HG concentration 1000, Supplementary Fig. 17c) was 1.434 and 1.459 and 1.447, the Normalized emission ratio (L-2-HG concentration 1000, Supplementary Fig. 18c) was 0.9678 and 0.9844 and 0.9663 and the Normalized emission ratio (L-2-HG concentration 2000, Supplementary Fig. 17c) was 1.455 and 1.475 and 1.401. The Normalized emission ratio (L-2-HG concentration 2000, Supplementary Fig. 18c) was 0.9838 and 0.9876 and 0.9675, the Normalized emission ratio (L-2-HG concentration 10000, Supplementary Fig. 17c) was 1.475 and 1.44 and 1.4468 and the Normalized emission ratio (L-2-HG concentration 10000, Supplementary Fig. 18c) was 0.9794 and 1.103 and 1.106.
